According to article PMC4769088, “Antifungal Activity and Action Mechanism of Histatin 5-Halocidin Hybrid Peptides against Candida ssp” (PLoS ONE, 2016):
Where a SMILES comes first, the peptide text is derived from it. Bridges are numbered along the chain shown (N, C = ends). Roman numbers before positions name the chains, in order.

Test system: all tested Candida strains
Format: cell-based
Settings: 4 h
Protocol: To determine the candidacidal activity of the peptides, we used Candida strains obtained from the Culture collection of antimicrobial resistant microbes at Seoul Women’s University in Korea. These included three Candida albicans (CCARM 14020, 14021, 14022), Candida guillermondi and Candida tropicalis. In addition, Candida albicans SC5413 was kindly provided by Dr Jeong-Yoon Kim at the Department of Microbiology & Molecular Biology, Chungnam University, Korea. Yeast were cultured overnight at 30°C in 10 ml of yeast extract-peptone-dextrose (YPD) broth (Qbiogene), then diluted in 10 ml of YPD broth to OD600 = 0.2 and grown for an additional 4 h with shaking at 30°C until OD600 = 0.8 in order to obtain mid-log phase cultures. The peptides (Hst 5, P113, HHP1, HHP2, PH1, PH2, di-PH1, di-PH2, WP1, di-WP2, di-15Hc and di-18Hc) in this study were synthesized by using standard solid-phase synthesis protocols and were purified by reversed-phase high-performance liquid chromatography at Anygen Inc. (Korea). FITC-labeled peptides (F-Hst5, F-P113, F-HHP1, F-di-PH2, F-di-WP2 and F-di-18Hc) were also synthesized by 6-aminohexnoic acid linker at Anygen (Korea) for confocal experiments.
The candidacidal activities of the peptides were tested by using standard microdilution plate assays, radial diffusion assays and broth dilution assay slightly modified from the procedure recommended by the National Committee for Clinical Laboratory Standards. For the candidacidal assays, C. albicans cells were grown in YPD medium and washed twice with 10 mM sodium phosphate buffer (NaPB; Na2HPO4, NaH2PO4, pH 7.4). The cells (1 x 10^6) were then mixed with different concentrations of peptides and incubated at 30°C with constant shaking for 60 min. For energy depletion experiments, cells were pre-incubated with 10 mM NaPB containing 5 mM NaN3 at 30°C for 60 min before the addition of peptides. The cell suspensions were diluted in 10 mM NaPB and aliquots of 500 cells were spread onto YPD agar plates then incubated for 24 h at 30°C to visualize the surviving colonies. Cell survival was expressed as a percentage of that for the control, and the loss of viability was calculated as [1 x (number of colonies from peptide-treated cells/number of colonies from control cells)] x 100. Candidacidal assays were performed in triplicate. For the radial diffusion assay, C. albicans cells were grown in YPD medium overnight and washed twice with 10 mM NaPB. Washed yeast-phase C. albicans cells (1 x 10^6 CFU) were trapped in thin underlay gels containing 9 mM sodium phosphate, 1 mM sodium citrate buffer, 1% (wt/vol) agarose (A6013; Sigma), and 0.3 mg of Sabouraud dextrose broth (Difco)/ml. After incubation at 37°C for 3 h, a 10 ml overlay gel of 1% agarose and 6% Sabouraud dextrose broth was poured on the underlay gel and then the plates were incubated overnight at 37°C. The clear-zone diameters were measured to the nearest 0.1 mm and graphed against the peptide concentration. Zone diameters were expressed in units (0.1 mm = 1 unit). For the broth dilution assay, the Candida strains were cultured in LYM broth for 18 h at 30°C. The numbers of yeasts were counted using a hemocytometer. Stock peptide solutions were prepared to a concentration of 320 μg/ml in distilled water, and were then serially diluted twofold, to 5 μg/ml. 100 μl aliquots of the diluted culture media containing candida cells (1 x 10^3) were dispensed into the wells of 96-well polypropylene microtiter plates (Costar 3879, Corning, NY), to which peptide solution (11 μl) was then added. In the experiments conducted to assess the candidacidal activity of peptides in the presence of salt, we used LYM supplemented with 150 mM NaCl for the culture medium, which was mixed with the peptide solution. The antifungal activities were evaluated after 24 h of incubation at 30°C by the observation of visible turbidity the wells. […]

Row | SMILES | MIC values [µg/mL]
1 | CC(C)C[C@H](NC(=O)CNC(=O)[C@H](Cc1c[nH]cn1)NC(=O)[C@H](Cc1c[nH]cn1)NC(=O)[C@H](CCCNC(=N)N)NC(=O)[C@H](CCCCN)NC(=O)[C@H](C)N)C(=O)N[C@@H](CC(N)=O)C(=O)N[C@@H](CSSC[C@H](NC(=O)[C@H](CC(N)=O)NC(=O)[C@H](CC(C)C)NC(=O)CNC(=O)[C@H](Cc1c[nH]cn1)NC(=O)[C@H](Cc1c[nH]cn1)NC(=O)[C@H](CCCNC(=N)N)NC(=O)[C@H](CCCCN)NC(=O)[C@H](C)N)C(=O)N[C@@H](C)C(=O)N[C@@H](CCCCN)C(=O)N[C@@H](Cc1ccccc1)C(=O)N[C@@H](Cc1c[nH]cn1)C(N)=O)C(=O)N[C@@H](C)C(=O)N[C@@H](CCCCN)C(=O)N[C@@H](Cc1ccccc1)C(=O)N[C@@H](Cc1c[nH]cn1)C(N)=O [di-PH2] (I: H-AKRHHGLNCAKFH-NH2 / II: H-AKRHHGLNCAKFH-NH2; disulfide I:9-II:9 (inferred); N-terminus assumed) | 1 to 2
2 | CC(C)C[C@H](NC(=O)[C@@H](N)Cc1c[nH]c2ccccc12)C(=O)N[C@@H](CC(N)=O)C(=O)N[C@@H](C)C(=O)N[C@@H](CCCCN)C(=O)N[C@@H](CCCNC(=N)N)C(=O)N[C@@H](Cc1c[nH]cn1)C(=O)N[C@@H](Cc1c[nH]cn1)C(=O)NCC(=O)N[C@@H](Cc1ccc(O)cc1)C(=O)N[C@@H](CCCCN)C(=O)N[C@@H](CSSC[C@H](NC(=O)[C@H](CCCCN)NC(=O)[C@H](Cc1ccc(O)cc1)NC(=O)CNC(=O)[C@H](Cc1c[nH]cn1)NC(=O)[C@H](Cc1c[nH]cn1)NC(=O)[C@H](CCCNC(=N)N)NC(=O)[C@H](CCCCN)NC(=O)[C@H](C)NC(=O)[C@H](CC(N)=O)NC(=O)[C@H](CC(C)C)NC(=O)[C@@H](N)Cc1c[nH]c2ccccc12)C(=O)N[C@@H](CCCCN)C(=O)N[C@@H](Cc1ccccc1)C(=O)N[C@@H](Cc1c[nH]cn1)C(N)=O)C(=O)N[C@@H](CCCCN)C(=O)N[C@@H](Cc1ccccc1)C(=O)N[C@@H](Cc1c[nH]cn1)C(N)=O [di-WP2] (I: H-WLNAKRHHGYKCKFH-NH2 / II: H-WLNAKRHHGYKCKFH-NH2; disulfide I:12-II:12 (inferred); N-terminus assumed) | 2 to 4
